pIC50: −log10 of the molar value.
How the values were obtained:
[1] = target: Cyclin-dependent kinase 5/CDK5 activator 1 (Homo sapiens, UniProt Q00535); type: protein-complex assay
Description: Inhibition of human recombinant CDK5/p25 using histone H1 as substrate in presence of [gamma-33P]ATP incubated for 30 mins by liquid scintillation counting assay

[2] = target: Glycogen synthase kinase-3 (Sus scrofa, UniProt B2LUN4+I6LNT8)
Description: Inhibition of native porcine brain GSK-3alpha/beta using GS-1 as substrate incubated for 30 mins in presence of [gamma-33P]ATP by liquid scintillation counting assay

[3] = system: Huh-7; experiment: Cytotoxicity against human HuH7 cells assessed as growth inhibition incubated for 48 hrs by Hoechst 33342 staining based assay; type: cell-based; details: Huh-7, 48 h
[4] = target: Cholinesterase (Homo sapiens, UniProt P06276); experiment: Inhibition of human serum BChE using BTCh as substrate preincubated for 20 mins followed by substrate addition and measured for 3 mins by Ellman's method
[5] = system: HCT-116; experiment: Cytotoxicity against human HCT116 cells assessed as growth inhibition incubated for 48 hrs by Hoechst 33342 staining based assay; type: cell-based; details: HCT-116, 48 h
[6] = system: Caco-2; experiment: Cytotoxicity against human Caco2 cells assessed as growth inhibition incubated for 48 hrs by Hoechst 33342 staining based assay; type: cell-based; details: Caco-2, 48 h
[7] = target: Acetylcholinesterase (Homo sapiens, UniProt P22303); experiment: Inhibition of human recombinant AChE using ATCh as substrate preincubated for 20 mins followed by substrate addition and measured for 3 mins by Ellman method
[8] = system: NCI-H727; experiment: Cytotoxicity against human NCI-H727 cells assessed as growth inhibition incubated for 48 hrs by Hoechst 33342 staining based assay; type: cell-based; details: NCI-H727, 48 h
[9] = system: PC-3; experiment: Cytotoxicity against human PC3 cells assessed as growth inhibition incubated for 48 hrs by Hoechst 33342 staining based assay; type: cell-based; details: PC-3, 48 h
[10] = system: MDA-MB-231; experiment: Cytotoxicity against human MDA-MB-231 cells assessed as growth inhibition incubated for 48 hrs by Hoechst 33342 staining based assay; type: cell-based; details: MDA-MB-231, 48 h
[11] = system: MDR1; experiment: in vitro; details: dog, MDCK-MDR1
Description: Apparent permeability across basolateral to apical side in MDCK2-MDR1 cells by HPLC analysis

[12] = system: MDCK-MDR1; experiment: Cytotoxicity against MDCK2-MDR1 cells assessed as reduction in cell viability at 75 uM incubated for 2 hrs by MTT assay; type: ADME, cell-based, Canis lupus familiaris; details: dog, mdck-mdr1, 2 h
[13] = system: MDR1; experiment: in vitro; details: dog, MDCK-MDR1; remark: listed apart in the source
Description: Apparent permeability across apical to basolateral side in MDCK2-MDR1 cells by HPLC analysis

[14] = Cytotoxicity against human SH-SY5Y cells assessed as reduction in cell viability at 100 uM incubated for 24 hrs by MTT assay relative to untreated cells; type: cell-based; details: read-out: INH
[15] = system: SH-SY5Y; experiment: Cytotoxicity against human SH-SY5Y cells assessed as reduction in cell viability incubated for 72 hrs by MTT assay; type: cell-based
[16] = system: MDR1; experiment: in vitro; details: dog, MDCK-MDR1; remark: listed apart in the source
Description: Efflux ratio of apparent permeability from basolateral to apical over apical to basolateral side in MDCK2-MDR1 cells by HPLC analysis

[17] = system: HaCaT; experiment: Cytotoxicity against human HaCaT cells assessed as growth inhibition incubated for 48 hrs by Hoechst 33342 staining based assay; type: cell-based

Chain of Cholinesterase (P06276 whole entry): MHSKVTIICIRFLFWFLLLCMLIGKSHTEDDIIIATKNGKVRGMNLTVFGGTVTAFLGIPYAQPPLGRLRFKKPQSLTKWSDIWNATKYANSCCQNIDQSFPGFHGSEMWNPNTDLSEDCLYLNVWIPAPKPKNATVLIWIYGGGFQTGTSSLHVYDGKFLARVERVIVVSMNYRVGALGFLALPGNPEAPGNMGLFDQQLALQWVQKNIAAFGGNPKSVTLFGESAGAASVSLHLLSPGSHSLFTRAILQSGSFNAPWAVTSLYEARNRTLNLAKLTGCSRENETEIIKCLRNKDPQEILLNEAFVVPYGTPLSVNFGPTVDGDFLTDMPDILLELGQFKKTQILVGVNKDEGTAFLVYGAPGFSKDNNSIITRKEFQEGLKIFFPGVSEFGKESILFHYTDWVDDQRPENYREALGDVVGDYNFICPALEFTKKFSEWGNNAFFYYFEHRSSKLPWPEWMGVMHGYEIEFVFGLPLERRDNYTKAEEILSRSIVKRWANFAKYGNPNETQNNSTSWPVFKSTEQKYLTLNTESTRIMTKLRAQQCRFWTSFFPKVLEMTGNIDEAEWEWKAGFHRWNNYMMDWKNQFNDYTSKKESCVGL
Chain of Acetylcholinesterase (P22303 whole entry): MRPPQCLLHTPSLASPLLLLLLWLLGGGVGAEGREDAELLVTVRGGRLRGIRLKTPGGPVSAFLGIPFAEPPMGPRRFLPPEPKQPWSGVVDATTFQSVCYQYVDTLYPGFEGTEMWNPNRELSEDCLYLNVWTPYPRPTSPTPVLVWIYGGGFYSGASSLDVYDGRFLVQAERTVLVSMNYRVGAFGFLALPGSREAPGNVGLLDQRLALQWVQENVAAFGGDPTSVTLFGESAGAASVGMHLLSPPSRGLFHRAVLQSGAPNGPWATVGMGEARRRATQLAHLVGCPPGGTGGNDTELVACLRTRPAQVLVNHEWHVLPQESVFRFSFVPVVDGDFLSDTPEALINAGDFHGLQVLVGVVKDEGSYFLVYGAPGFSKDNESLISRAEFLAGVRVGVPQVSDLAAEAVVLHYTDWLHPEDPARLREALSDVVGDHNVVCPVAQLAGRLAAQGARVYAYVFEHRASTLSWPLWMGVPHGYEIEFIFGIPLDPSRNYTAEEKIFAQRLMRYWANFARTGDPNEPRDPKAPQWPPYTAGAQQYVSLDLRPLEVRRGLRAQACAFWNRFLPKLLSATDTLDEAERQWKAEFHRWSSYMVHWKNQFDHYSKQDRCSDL
Chain of Cyclin-dependent kinase 5/CDK5 activator 1 (Q00535 whole entry): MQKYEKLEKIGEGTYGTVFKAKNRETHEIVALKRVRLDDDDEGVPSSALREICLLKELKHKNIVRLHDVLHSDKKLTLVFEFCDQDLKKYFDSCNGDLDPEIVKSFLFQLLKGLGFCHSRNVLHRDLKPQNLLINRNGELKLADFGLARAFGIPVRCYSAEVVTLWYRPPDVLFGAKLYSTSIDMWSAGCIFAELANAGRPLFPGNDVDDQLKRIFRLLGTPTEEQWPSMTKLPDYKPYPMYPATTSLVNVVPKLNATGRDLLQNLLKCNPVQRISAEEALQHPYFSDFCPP
Chain of Cyclin-dependent kinase 5/CDK5 activator 1 (Q15078 whole entry, further chain): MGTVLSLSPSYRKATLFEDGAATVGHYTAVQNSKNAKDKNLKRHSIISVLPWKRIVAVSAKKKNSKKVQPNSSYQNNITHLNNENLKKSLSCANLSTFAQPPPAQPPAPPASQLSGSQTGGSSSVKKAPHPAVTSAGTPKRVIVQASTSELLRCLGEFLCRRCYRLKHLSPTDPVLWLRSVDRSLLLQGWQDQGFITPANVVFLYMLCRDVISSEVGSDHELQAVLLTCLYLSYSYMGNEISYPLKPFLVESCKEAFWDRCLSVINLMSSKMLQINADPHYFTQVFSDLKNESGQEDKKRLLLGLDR

Row | Compound | pIC50 [1] | IC50 [2] [nM] | pIC50 [3] | pIC50 [4] | pIC50 [5] | pIC50 [6] | pIC50 [7] | pIC50 [8] | pIC50 [9] | pIC50 [10] | other results
1 | c1ccc2c(NCCn3ccnn3)c3c(nc2c1)CCCC3 | < 5.00 | > 10000 |  |  |  |  |  |  |  |  | 
2 | C#CCCc1ccnc(NC(=O)Nc2cccc3c2C2CCCCN2C3=O)c1 (racemic) | 7.15 | 15 |  |  |  |  |  |  |  |  | 
3 | C#CCN(C)Cc1ccnc(NC(=O)Nc2cccc3c2C2CCCCN2C3=O)c1 (racemic) | 7.05 | 11 |  |  |  |  |  |  |  |  | 
4 | C#Cc1ccnc(NC(=O)Nc2cccc3c2[C@@H]2CCCCN2C3=O)c1 | 7.30 | 90 |  |  |  |  |  |  |  |  | 
5 | O=C(Nc1cccc(-c2cn(CCNc3c4c(nc5ccccc35)CCCC4)nn2)n1)Nc1cccc2c1C1CCCCN1C2=O (racemic) | 5.51 | 4200 | 4.74 | 7.68 | 4.77 | 4.62 | 6.88 | < 4.60 | 4.57 | 4.77 | 
6 | C#Cc1cccc(NC(=O)Nc2cccc3c2C2CCCCN2C3=O)n1 (racemic) | 7.10 | 300 |  |  |  |  |  |  |  |  | 
7 | O=C(Nc1cc(-c2cn(CCNc3c4c(nc5ccccc35)CCCC4)nn2)ccn1)Nc1cccc2c1[C@H]1CCCCN1C2=O | 6.30 | 7 | 5.46 | 6.40 | 5.66 | 5.10 | 8.02 | 5.30 | 5.52 | 5.70 | 
8 | O=C(Nc1cc(COCc2cn(CCNc3ccncc3)nn2)ccn1)Nc1cccc2c1C1CCCCN1C2=O (racemic) | 6.70 | 30 |  |  |  |  |  |  |  |  | 
9 | O=C(Nc1cc(COCc2cn(CCCc3ccccc3)nn2)ccn1)Nc1cccc2c1C1CCCCN1C2=O (racemic) | 6.59 | 8 |  |  |  |  |  |  |  |  | 
10 | C#Cc1ccc(NC(=O)Nc2cccc3c2C2CCCCN2C3=O)nc1 (racemic) | < 5.00 | > 10000 |  |  |  |  |  |  |  |  | 
11 | O=C(Nc1ccc(-c2cn(CCNc3c4c(nc5ccccc35)CCCC4)nn2)cn1)Nc1cccc2c1C1CCCCN1C2=O (racemic) | < 5.00 | > 10000 | < 4.60 | 6.73 | < 4.60 | < 4.60 | 9.10 | < 4.60 | < 4.60 | < 4.60 | 
12 | O=C(Nc1cc(COCc2cn(CCNc3c4c(nc5ccccc35)CCCC4)nn2)ccn1)Nc1cccc2c1C1CCCCN1C2=O (racemic) | 6.52 | 10 | 5.40 | 6.77 | 5.40 | 4.70 | 7.68 | 5.05 | 5.15 | 5.40 | Papp B→A [11]: 20.8 ×10⁻⁶ cm/s; Activity [12]: Non-Toxic; Papp A→B [13]: 13.5 ×10⁻⁶ cm/s; cytotoxicity at 24 h, 100 µM [14]: 50%; pIC50 [15]: 4.66; efflux ratio [16]: 1.54; pIC50 [17]: 5.40
13 | Cn1cc(COCc2ccnc(NC(=O)Nc3cccc4c3C3CCCCN3C4=O)c2)nn1 (racemic) | 6.60 | 25 |  |  |  |  |  |  |  |  | 
14 | O=C(Nc1cc(CCc2cn(CCNc3c4c(nc5ccccc35)CCCC4)nn2)ccn1)Nc1cccc2c1C1CCCCN1C2=O (racemic) | 6.10 | 21 | 5.54 | 7.18 | 5.96 | 5.32 | 7.63 | 5.20 | 5.80 | 5.70 | pIC50 [17]: 5.72
15 | C#Cc1ccnc(NC(=O)Nc2cccc3c2[C@H]2CCCCN2C3=O)c1 | 7.74 | 33 |  |  |  |  |  |  |  |  | 
16 | O=C(Nc1cc(-c2cn(CCNc3c4c(nc5ccccc35)CCCC4)nn2)ccn1)Nc1cccc2c1[C@@H]1CCCCN1C2=O | 5.96 | 19 | 5.59 | 6.60 | 5.57 | 5.00 | 7.86 | 5.15 | 5.22 | 5.40 | 
17 | O=C(Nc1cc(COCc2cn(CCNc3ccnc4ccccc34)nn2)ccn1)Nc1cccc2c1C1CCCCN1C2=O (racemic) | 6.62 | > 10000 |  |  |  |  |  |  |  |  | 
18 | C#Cc1ccnc(NC(=O)Nc2cccc3c2C2CCCCN2C3=O)c1 (racemic) | 7.17 | 41 |  |  |  |  |  |  |  |  | 
19 | CN(Cc1ccnc(NC(=O)Nc2cccc3c2C2CCCCN2C3=O)c1)Cc1cn(CCNc2c3c(nc4ccccc24)CCCC3)nn1 (racemic) | 6.51 | 10 | 5.70 | 6.69 | 5.70 | 5.05 | 7.23 | 5.40 | 5.52 | 5.70 | Papp B→A [11]: 8.4 ×10⁻⁶ cm/s; Activity [12]: Non-Toxic; Papp A→B [13]: 10.1 ×10⁻⁶ cm/s; cytotoxicity at 24 h, 100 µM [14]: 50%; pIC50 [15]: 4.60; efflux ratio [16]: 0.83; pIC50 [17]: 5.70
20 | C#CCOCc1ccnc(NC(=O)Nc2cccc3c2C2CCCCN2C3=O)c1 (racemic) | 6.82 | 60 |  |  |  |  |  |  |  |  | 
